According to patent publication US20080279961A1, “TELOMERE TARGETING AGENTS AS STEM CELLS DIRECTED TREATMENTS” (priority 2007, published 2008):
“Also recorded” adds a separate entry of the source.

Assays:
[1] = system: HEK293T human embryonic kidney cells; assay: HTCA colony assay on normal embryonic kidney cells; format: cell-based
Description: In human tumor stem cell assay (HTCA)/clonogenic assay, single cell suspensions from in vivo studies above were washed in medium and passed through sieves and the resulting single cell suspensions seeded into soft agar (n=3 tumors per group) as described by us before (Fiebig et al., 2004). Single cell suspensions of cell lines were prepared by trypsinization from cells growing as monolayers on plastic. Briefly, 5,000 (HEK293T cells), 10,000 (PC3, MCF-7 and UXF1138L cells) or 50,000 (UXF1138L tumor tissue) vital cells were added to 0.2 ml Iscove's medium/20% fetal bovine serum/0.05% gentamycin containing 0.4% agar and plated on top of a base layer consisting of 0.2 ml medium with 0.75% agar. The next day, the agar layers were fed with Isocve's medium and cultures incubated at 37° C., 7% CO2 for approximately 11 days. Vital colonies were stained with 2-(4-iodophenyl)-3-(4-nitrophenyl)-5-phenyltetrazolium chloride (1 mg/ml) 24 hrs before evaluation, and colonies >70 μm were counted with an automated image analysis system (Omincon FAS IV, BIOSYS GmbH, Karben, Germany). Drug effect was assessed as growth inhibitory concentrations 50 and 70% (IC50, IC70). Methylcellulose was used to grow cord blood stem cells instead of soft agar. The seeding density was 20,000 cells/well. Stem cell growth factor supplemented and optimized methylcellulose (Methocult H4434) was purchased from Stem Cell Technologies (Vancouver, CA). Methylcellulose lacking growth factors was used as negative growth control. Statistical significance between treatment groups was evaluated by using the Student T-test.
To assess RHPS4 effects on normal stem cells, the human embryonic kidney cell line HEK293T was exposed to drug in the MTT and HTCA assays, and tested RHPS4 effects on colony forming units of the mononuclear cell fraction of human cord blood in methyl cellulose (FIG. 2C). The cord blood colony assay was performed with and without colony stimulating growth factors, only methylcellulose containing growth factors grew colonies. […] Additionally, in normal cell types as compared to tumor cells, low and pharmacodynamically relevant concentrations of RHPS4 (0.01 to 1 microM) did induce colony formation (FIG. 2C). To assure that the induction of colony growth by RHPS4 in normal stem cells is reproducible, cord blood from three different individuals and HEK293T cells from different passages were used. Data shown in FIG. 2C represent the mean and standard deviation from three independent experiments. […] However, the plating efficiency (actual number of colonies growing per total number of cells seeded) varied among the experiments and therefore the results are shown as % of control growth. E.g. HEK293T control colony growth ranged from a mean number of 54 to 463 colonies per well, but the least percentage (cut-off level) of growth induction by RHPS4 observed in either, the individual HEK293T or the cord blood experiments, was 150%. […] Instead, at RHPS4 levels that induced colony growth 2.4-fold (1 mircoM), bulk cell growth was inhibited to 60% of control (FIG. 2C).

UXF1138L tumors = assay: atypical mitoses counted in xenograft sections; format: in vivo, nude mice
Description: Upon termination of the experiments, tumors from 3 mice per group were excised and immediately fixed in 10% PBS buffered formalin for 24 hours followed by routine paraffin embedding procedures (Burger et al. 2005).
Five-micrometer paraffin sections were cut, dewaxed, and antigen retrieval done in citrate buffer (pH 6.0) in the microwave for 30 minutes. Sections were then treated with methanol/3% hydrogen peroxide to remove endogenous peroxidase and blocked with 10% normal goat serum in PBS and stained. PBS was used as washing buffer. Cells were incubated overnight at 4° C. with a monoclonal anti-hTERT antibody (class IgG2a, kappa, Novacastra, Newcastle, UK) diluted 1:40 in PBS. Mouse immunoglobulin G2a isotype control (Santa Cruz) was used as negative control. hTERT-specific immunoperoxidase staining was developed using the DAKO Envision+ system (Envision 3,3V-diaminobenzidine Plus kit mouse, DAKO Cytomation). […] Sections were viewed and evaluated by two independent pathologists. Mean numbers of atypical mitoses were counted in control and treated tissues from 3 tumors (4 fields of 250 cells per tumor) for the 3 groups (Burger et al. 2005). Box plots were generated using SigmaPlot version 10 software and statistical significance between treatments calculated in SigmaPlot using the Student T-test.

HEK293T = assay: cytokine secretion into clonogenic assay supernatant (ELISA); format: cell-based, human; conditions: HEK293T normal stem cell culture supernatant
Description: (§1) For the monkey bone marrow and the human cord blood, methylcellulose from StemCell Technologies (Vancouver) was used to grow the stem cells as colonies. […] Cancer tissues are composed of various cell types, tumor cells, stromal fibroblasts, blood vessels, inflammatory cells, and adipocytes, all of which can carry over into single cell suspensions that are seeded into soft agar after tissue digestion. To examine whether tumor stem cells secrete cytokines that support their growth of enforce differentiation, the expression of 6 cytokines found in the supernatant of clonogenic assays was evaluated. Ultrasensitive immunoassay procedures based on the ELISA (enzyme linked immuno absorbent assay) technology were employed for the measurement of VEGF, TNF-alpha, GMCSF, GCSF IL4 and IL6. The assays were performed by the Cytokine Laboratory in the VA Hospital at the University of Maryland Baltimore and data provided as optical density readouts that were converted relative to a standard into pg/ml absolute cytokine values. The IL4 and 6 measurements were all negative; however VEGF, TNF-alpha, GMCSF and GCSF yielded interesting and differential results between tumor and normal stem cells. While cytokine levels decreased after RHPS4 treatment in tumor stem cell assays, they increased in normal stem cell cultures.

MCF-7 = assay: as above; format: cell-based, human; conditions: MCF-7 tumor stem cell assay supernatant
Description: as §1

hTERT = hTERT immunohistochemistry of xenograft tissue; format: in vivo, human; conditions: RHPS4 treated UXF1138L xenograft
Description: Five-micrometer paraffin sections were cut, dewaxed, and antigen retrieval done in citrate buffer (pH 6.0) in the microwave for 30 minutes. Sections were then treated with methanol/3% hydrogen peroxide to remove endogenous peroxidase and blocked with 10% normal goat serum in PBS and stained. PBS was used as washing buffer. Cells were incubated overnight at 4° C. with a monoclonal anti-hTERT antibody (class IgG2a, kappa, Novacastra, Newcastle, UK) diluted 1:40 in PBS. Mouse immunoglobulin G2a isotype control (Santa Cruz) was used as negative control. hTERT-specific immunoperoxidase staining was developed using the DAKO Envision+ system (Envision 3,3V-diaminobenzidine Plus kit mouse, DAKO Cytomation). To enhance contrast, tissues were counterstained with hematoxylin. hTERT-specific staining intensity was documented using a Leica DM4000 microscope and digital camera. Sections were viewed and evaluated by two independent pathologists. Mean numbers of atypical mitoses were counted in control and treated tissues from 3 tumors (4 fields of 250 cells per tumor) for the 3 groups (Burger et al. 2005). Box plots were generated using SigmaPlot version 10 software and statistical significance between treatments calculated in SigmaPlot using the Student T-test.

[2] = system: Saos-2, HEK293T, UXF 1138, H460; assay: MTT assay in cell lines with short and long telomeres; format: cell-based, human

Structure (SMILES): COS(=O)(=O)[O-].Cc1cc2c3c([n+](C)c4ccc(F)cc4c3c1)-c1cc(F)ccc1N2C [RHPS4, 3,11-difluoro-6,8,13-trimethyl-8H-quino[4,3,2-kl]acridinium methosulfate]
- concentrations that markedly inhibited tumor colony forming units and induced cord blood and HEK293T colony growth [1]: 0.1-1 mircoM
- sensitivity of cord blood and HEK293T colony forming units versus tumor cell colonies [1]: over a log-fold less sensitive
- stimulation of growth, number of colonies compared to vehicle ([1]; 0.1 and 1 mircoM RHPS4, HEK293T): doubling to tripling the number of colonies
- induction of colony growth ([1]; 1 mircoM RHPS4, HEK293T): 2.4 fold
- drug concentration at which cell kill of normal stem cells was seen ([1]; HEK293T colony forming units): ~10 mircoM
- concentrations inhibiting normal colony formation above those inhibiting tumor cell colony formation ([1]; human embryonic kidney and cord blood vs tumor cells): over 25 fold
- RHPS4 concentrations that inhibited colony formation ([1]; human embryonic kidney cells): > 1 mircoM
- least percentage (cut-off level) of growth induction ([1]; individual HEK293T experiments, % of control growth): ≥ 150%
- mitotic abnormalities compared to vehicle control (UXF1138L tumors; 5 mg/kg/d p.o.): significant induction of mitotic abnormalities; also recorded: increase in mitotic abnormalities
- atypical mitosis, mean number (UXF1138L tumors; UXF1138L tumors passage 4, control 0.35): 1.25±0.19
- secretion of stem cell associated cytokines (HEK293T): increased; also recorded: induction in cytokine secretion, particularly VEGF
- secretion of stem cell associated cytokines (MCF-7): decreased; also recorded: inhibition of tumor necrosis factor alpha, VEGF, GMCSF and GCSF
- nuclear hTERT expression in xenograft tissue (hTERT): loss of strong nuclear hTERT expression
- difference in inhibitory concentrations 50% between cell lines with short and long telomeres [2]: two log-fold
